What all share (assay type): functional
Assay [1] has as its target T1, Protein RecA (Mycobacterium tuberculosis, UniProt P9WHJ3).
T1 sequence (P9WHJ3 whole entry): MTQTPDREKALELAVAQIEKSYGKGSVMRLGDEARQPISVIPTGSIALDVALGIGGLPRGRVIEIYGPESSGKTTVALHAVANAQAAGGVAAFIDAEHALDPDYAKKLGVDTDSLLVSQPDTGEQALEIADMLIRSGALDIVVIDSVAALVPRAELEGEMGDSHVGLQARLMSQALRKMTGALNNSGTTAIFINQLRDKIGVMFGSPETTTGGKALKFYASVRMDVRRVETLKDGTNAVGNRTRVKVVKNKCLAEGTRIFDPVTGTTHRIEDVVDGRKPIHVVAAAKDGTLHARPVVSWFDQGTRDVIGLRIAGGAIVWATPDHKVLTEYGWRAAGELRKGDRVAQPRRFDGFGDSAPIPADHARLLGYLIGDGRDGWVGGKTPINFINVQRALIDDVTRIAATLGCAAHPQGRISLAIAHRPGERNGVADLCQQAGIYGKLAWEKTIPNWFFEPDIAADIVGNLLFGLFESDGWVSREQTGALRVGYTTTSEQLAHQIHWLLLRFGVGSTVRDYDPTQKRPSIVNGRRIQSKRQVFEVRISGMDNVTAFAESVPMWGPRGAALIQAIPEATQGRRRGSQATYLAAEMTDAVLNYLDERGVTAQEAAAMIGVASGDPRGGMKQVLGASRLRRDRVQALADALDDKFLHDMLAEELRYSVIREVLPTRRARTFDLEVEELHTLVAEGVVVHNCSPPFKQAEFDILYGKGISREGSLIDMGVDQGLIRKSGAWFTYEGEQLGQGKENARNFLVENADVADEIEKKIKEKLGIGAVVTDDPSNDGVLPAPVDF
The assay can be described thus: Fluorescence Cell-Free Homogeneous Dose Retest to Identify Inhibitors of RecA-Intein Splicing Activity. [Related pubchem assays (depositor defined):AID2097, AID2223, AID489010, AID492950].

The target of assay [2] is T2, Sentrin-specific protease 6 (Homo sapiens, UniProt Q9GZR1).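 Also: Luminescence-based dose-response confirmatory assay of SENP6 inhibition, following up an ultra-high-throughput screen.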
T2 sequence (Q9GZR1 whole entry): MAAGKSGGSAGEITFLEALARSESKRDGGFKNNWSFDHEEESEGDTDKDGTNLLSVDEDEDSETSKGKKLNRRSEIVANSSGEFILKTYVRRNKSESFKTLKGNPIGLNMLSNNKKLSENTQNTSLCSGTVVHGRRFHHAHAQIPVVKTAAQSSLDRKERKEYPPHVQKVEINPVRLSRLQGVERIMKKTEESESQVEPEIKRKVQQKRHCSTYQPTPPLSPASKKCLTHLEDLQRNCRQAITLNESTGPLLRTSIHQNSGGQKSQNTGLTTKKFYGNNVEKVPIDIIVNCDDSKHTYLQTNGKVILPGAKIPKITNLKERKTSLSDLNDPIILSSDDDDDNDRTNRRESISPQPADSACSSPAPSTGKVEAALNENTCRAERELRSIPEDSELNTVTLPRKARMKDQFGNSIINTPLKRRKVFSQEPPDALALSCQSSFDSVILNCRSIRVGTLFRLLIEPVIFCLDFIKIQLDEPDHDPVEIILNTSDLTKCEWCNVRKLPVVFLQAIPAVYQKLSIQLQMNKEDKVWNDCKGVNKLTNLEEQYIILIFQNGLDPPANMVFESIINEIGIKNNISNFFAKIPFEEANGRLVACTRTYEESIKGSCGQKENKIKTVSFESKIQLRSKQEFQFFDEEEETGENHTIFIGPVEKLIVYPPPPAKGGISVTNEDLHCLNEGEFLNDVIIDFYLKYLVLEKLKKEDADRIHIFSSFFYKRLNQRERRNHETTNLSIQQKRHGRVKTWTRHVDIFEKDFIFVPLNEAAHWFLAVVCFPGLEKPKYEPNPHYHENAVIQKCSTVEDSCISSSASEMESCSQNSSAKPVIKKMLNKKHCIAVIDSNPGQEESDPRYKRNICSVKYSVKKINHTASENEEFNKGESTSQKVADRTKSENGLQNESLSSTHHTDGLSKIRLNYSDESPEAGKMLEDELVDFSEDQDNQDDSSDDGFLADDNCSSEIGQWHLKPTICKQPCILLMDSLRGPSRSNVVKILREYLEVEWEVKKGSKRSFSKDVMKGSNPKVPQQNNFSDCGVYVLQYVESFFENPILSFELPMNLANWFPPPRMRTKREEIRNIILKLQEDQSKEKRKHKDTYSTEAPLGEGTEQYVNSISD

Assay [3] in a line: cytotoxicity in HEK-293T NF-kB-Luc cells, dose response, cytotoxicity control for B/T-cell NF-kB inhibitor project, cell-based, uHTS hits (AID 489019).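 Also: IC50 reflects cytotoxicity as loss of cell viability.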
The target of assay [4] is T3, Sentrin-specific protease 8 (Homo sapiens, UniProt Q96LD8).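 Also: luminescence read-out of SENP8 inhibition, dose-response confirmation following an ultra-high-throughput screen.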
T3 sequence (Q96LD8 whole entry): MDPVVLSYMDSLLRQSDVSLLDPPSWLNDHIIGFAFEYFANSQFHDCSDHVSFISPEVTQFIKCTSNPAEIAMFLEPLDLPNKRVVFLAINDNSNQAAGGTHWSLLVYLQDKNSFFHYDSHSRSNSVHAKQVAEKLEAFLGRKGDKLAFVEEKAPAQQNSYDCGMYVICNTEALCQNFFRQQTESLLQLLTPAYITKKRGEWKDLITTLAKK

Each structure is given as a SMILES string. Active and inactive are the calls of the source. A value given as a limit tells only on which side of the number the result lay.

Turning to `COc1ccc(C(N)c2nccc3cc(OC)c(OC)cc23)cc1OC` (centres undefined), the EC50 in assay [1] was > 380 µM (inactive).

With `N#Cc1c(NC(=O)CSc2nc[nH]n2)sc2c1CCCCC2`, the IC50 is 4 µM (active) in assay [2], > 80 µM (inactive) in assay [3] and 4.66 µM (active) in assay [4].

A word on the EC50: it is the concentration that produces a half-maximal response. As a reminder, the IC50 is the concentration that inhibits the measured activity by half.

These data come from ChEMBL document CHEMBL1201862, “PubChem BioAssay data set” (2004).
